This note sets out measurements from ChEMBL document CHEMBL1201862, “PubChem BioAssay data set” (2004).

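Each compound was tested at five concentrations against cells in 96-well plates for 48 hours. GI50: concentration for 50% inhibition of growth.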 Activity calls are given as the source filed them. Rule as the data show it: active = GI50 up to about 1.1 µM and inactive = higher.

Test systems include SNB-75; A549; BT-549; MDA-N; MDA-MB-231; NCI-H226; UACC-62; LOX IMVI; SW-620; ACHN; IGROV-1; HCT-15; SK-OV-3; A498; SNB-19; NCI-H522; Malme-3M; RPMI-8226; K562.
Holding throughout (test): NCI-60 cell line screen, 48 h

Take `CN(CCCNC(=O)c1n[nH]c2c1ccc1ccccc12)CCCNC(=O)c1n[nH]c2c1ccc1ccccc12`: the GI50 is 16.3 µM (inactive) in the assay on SNB-75; 19.3 µM (inactive) in the assay with A549; 15.6 µM (inactive) in the assay with BT-549; 2.14 µM (inactive) in the assay with MDA-N; 10.9 µM (inactive) in the assay on MDA-MB-231; 13.4 µM (inactive) with NCI-H226. Moreover, the GI50 in the assay on UACC-62 was 9.91 µM (inactive); in the assay on LOX IMVI it was 12.5 µM (inactive); in the assay on SW-620, 16.3 µM (inactive); with ACHN, 17.6 µM (inactive); in the assay on IGROV-1 it was 16.5 µM (inactive); in the assay on HCT-15, 17 µM. Besides, the GI50 with SK-OV-3 was 18.1 µM (inactive); in the assay on A498, 17.8 µM (inactive); in the assay with SNB-19, 18.8 µM (inactive); in the assay on NCI-H522, 16.8 µM (inactive); in the assay on Malme-3M, 10.3 µM (inactive).

For the compound `Cc1[nH]c2c(c1Cc1ccccc1)C1=NC=C(O)NN1C=N2`, the GI50 in the assay with RPMI-8226 was 51.5 µM (inactive); in the assay on SNB-75, 10.3 µM (inactive); in the assay on A549, > 100 µM (inactive); in the assay with BT-549, 49 µM (inactive); in the assay with MDA-N, > 100 µM (inactive); in the assay on MDA-MB-231 it was > 100 µM (inactive). In addition, the GI50 was > 100 µM (inactive) with NCI-H226; 65.6 µM (inactive) in the assay with UACC-62; 21.5 µM (inactive) in the assay with SW-620; 44.3 µM (inactive) with ACHN; 10 µM (inactive) in the assay on IGROV-1; 45.3 µM with HCT-15. The GI50 in the assay on SK-OV-3 was > 100 µM (inactive); with A498, > 100 µM (inactive); in the assay on SNB-19 it was > 100 µM (inactive); with NCI-H522, 43.7 µM (inactive); in the assay on Malme-3M it was > 100 µM (inactive).

Regarding `Cc1ccc(Nc2nnc(-c3ccc4c(c3)OCO4)o2)c(C)c1`, the GI50 in the assay with RPMI-8226 was 54 µM (inactive); in the assay with SNB-75, > 100 µM (inactive); in the assay on A549 it was > 100 µM (inactive); in the assay with BT-549, > 100 µM (inactive); with MDA-N, > 100 µM (inactive); in the assay with MDA-MB-231 it was 62.2 µM (inactive). Further, the GI50 is > 100 µM (inactive) in the assay on NCI-H226; 32.8 µM (inactive) with UACC-62; > 100 µM (inactive) in the assay with LOX IMVI; > 100 µM (inactive) in the assay with K562; > 100 µM (inactive) in the assay on SW-620; > 100 µM (inactive) with ACHN. Also, the GI50 in the assay with IGROV-1 was > 100 µM (inactive); with HCT-15 it was above 100 µM; with SK-OV-3 it was > 100 µM (inactive); in the assay with A498 it was 39.6 µM (inactive); in the assay with SNB-19 it was 40.2 µM (inactive); with NCI-H522 it was 30.5 µM (inactive). For the same compound, the GI50 in the assay with Malme-3M was > 100 µM (inactive).

Take `CCOC(=O)/C=C(\C(=O)OCC)n1cc(C)c(=O)n(Cc2cnnn2CCCCOC(C)=O)c1=O`: the GI50 is 7.36 µM (inactive) in the assay with RPMI-8226; 18 µM (inactive) in the assay with SNB-75; 24.5 µM (inactive) in the assay on A549; 8.28 µM (inactive) with BT-549; 20.3 µM (inactive) with MDA-N; 22.2 µM (inactive) with MDA-MB-231. In addition, the GI50 was 7.43 µM (inactive) with NCI-H226; 15 µM (inactive) with UACC-62; 4.06 µM (inactive) with LOX IMVI; 2.64 µM (inactive) in the assay with K562; 2.32 µM (inactive) in the assay on SW-620; 2.06 µM (inactive) in the assay on ACHN. Besides, the GI50 was 12.7 µM (inactive) with IGROV-1; 2.84 µM in the assay on HCT-15; > 62.4 µM (inactive) with SK-OV-3; 22.2 µM (inactive) with A498; 25.4 µM (inactive) in the assay on SNB-19; 1.38 µM (inactive) in the assay with NCI-H522. Besides, the GI50 in the assay on Malme-3M is 1.82 µM (inactive).

Take `N#Cc1ccc(-c2nc3c(N)nc(-c4ccccc4)nc3o2)cc1`: the GI50 in the assay on RPMI-8226 is > 100 µM (inactive); in the assay on SNB-75, 72.9 µM (inactive); with A549 it was 88.7 µM (inactive); in the assay on BT-549 it was > 100 µM (inactive); in the assay with MDA-N it was > 100 µM (inactive); in the assay on MDA-MB-231, 13.3 µM (inactive). The GI50 in the assay with NCI-H226 was > 100 µM (inactive); in the assay on UACC-62 it was > 100 µM (inactive); in the assay on LOX IMVI, > 100 µM (inactive); in the assay with K562, > 100 µM (inactive); in the assay with SW-620, > 100 µM (inactive); in the assay on ACHN, 26.9 µM (inactive). In addition, the GI50 in the assay with IGROV-1 is > 100 µM (inactive); in the assay with HCT-15, above 100 µM; with A498, > 100 µM (inactive); with SNB-19, 55.1 µM (inactive); in the assay with NCI-H522 it was 25 µM (inactive).

`CC(C)C1=CC(=O)[C@@](C)(C2[C@H](O)C[C@@]3(C)[C@@H]4CC=C5[C@@H](CC[C@@H](OC6OCC(O)C(O)C6OC6OC(C)C(O)C(O)C6O)C5(C)C)[C@]4(C)C(=O)C[C@]23C)O1` (stereo not given in full): the GI50 in the assay with RPMI-8226, in the assay with SNB-75, with A549, with BT-549, in the assay with MDA-N and in the assay with MDA-MB-231 was > 100 µM (inactive) throughout. Moreover, the GI50 with NCI-H226, in the assay on UACC-62, with K562, in the assay on SW-620, with ACHN and in the assay with IGROV-1 was > 100 µM (inactive) each time. The GI50 in the assay with HCT-15 is above 100 µM; with SK-OV-3, > 100 µM (inactive); with A498, > 100 µM (inactive); in the assay with SNB-19, > 100 µM (inactive); in the assay with NCI-H522, > 100 µM (inactive); in the assay on Malme-3M, > 100 µM (inactive).

For `CC(=O)OC1COC(n2c(N)c(C#N)c(C)c(C#N)c2=S)C(OC(C)=O)C1OC(C)=O` (stereo not given), the GI50 in the assay with RPMI-8226, with SNB-75, in the assay with A549, in the assay on BT-549, in the assay on MDA-N and in the assay on MDA-MB-231 was > 100 µM (inactive) each time. The GI50 is > 100 µM (inactive) in the assay with NCI-H226; 66.4 µM (inactive) with UACC-62; > 100 µM (inactive) in the assay with LOX IMVI; 58.9 µM (inactive) with K562; > 100 µM (inactive) with SW-620; 59.6 µM (inactive) in the assay on ACHN. Further, the GI50 with IGROV-1 is > 100 µM (inactive); with HCT-15, above 100 µM; in the assay on SK-OV-3, > 100 µM (inactive); with A498 it was > 100 µM (inactive); with NCI-H522 it was > 100 µM (inactive); in the assay with Malme-3M it was > 100 µM (inactive).

As for `Cc1cc(NS(=O)(=O)c2ccc(Nc3c4ccccc4nc4c(C(=O)NCCO)cccc34)cc2)no1`, the GI50 is 19.4 µM (inactive) with RPMI-8226; 7.19 µM (inactive) in the assay on SNB-75; 37.3 µM (inactive) with A549; 16.8 µM (inactive) in the assay on BT-549; 35.8 µM (inactive) with MDA-N; 17.9 µM (inactive) with MDA-MB-231. For the same compound, the GI50 was 20.2 µM (inactive) in the assay with UACC-62; 27.6 µM (inactive) with LOX IMVI; 26.3 µM (inactive) in the assay on K562; 22.6 µM (inactive) in the assay with SW-620; 30.2 µM (inactive) in the assay on ACHN; 25.1 µM (inactive) in the assay on IGROV-1. Besides, the GI50 with HCT-15 was 24.9 µM; with SK-OV-3, 35.6 µM (inactive); in the assay with A498, 30.1 µM (inactive); in the assay with SNB-19 it was 37.4 µM (inactive); with NCI-H522, 11.4 µM (inactive); with Malme-3M, 28.1 µM (inactive).

As for `Nc1nc(Cl)c(N)c(NCC2(CO)CCC(OCc3ccccc3)C2)n1` (stereo not given), the GI50 was > 100 µM (inactive) with SNB-75; > 100 µM (inactive) in the assay on A549; 61.9 µM (inactive) with BT-549; > 100 µM (inactive) in the assay on MDA-N; > 100 µM (inactive) in the assay with MDA-MB-231; 0.433 µM (active) with NCI-H226. The GI50 in the assay on UACC-62 is > 100 µM (inactive); in the assay on LOX IMVI, 18.5 µM (inactive); with K562, 1.33 µM (inactive); with SW-620 it was > 100 µM (inactive); with ACHN, > 100 µM (inactive); in the assay on IGROV-1, > 100 µM (inactive). The GI50 in the assay on HCT-15 is 61.9 µM; in the assay on SK-OV-3, > 100 µM (inactive); in the assay with A498, 0.982 µM (active); in the assay on SNB-19, > 100 µM (inactive); with NCI-H522 it was > 100 µM (inactive); in the assay on Malme-3M, 39.5 µM (inactive).

Take `COc1cc(CNNC(N)=S)cc(OC)c1OC`: the GI50 in the assay on RPMI-8226 was > 100 µM (inactive); in the assay on SNB-75, > 100 µM (inactive); with A549, > 100 µM (inactive); in the assay with BT-549, 22.3 µM (inactive); in the assay with MDA-N, > 100 µM (inactive); in the assay on MDA-MB-231 it was > 100 µM (inactive). For the same compound, the GI50 in the assay with NCI-H226, in the assay on LOX IMVI, in the assay with K562, in the assay with SW-620, with ACHN and with IGROV-1 was > 100 µM (inactive) throughout. For the same compound, the GI50 in the assay on HCT-15 was above 100 µM; in the assay on A498 it was > 100 µM (inactive); in the assay on SNB-19 it was > 100 µM (inactive); in the assay with NCI-H522, > 100 µM (inactive); in the assay with Malme-3M it was > 100 µM (inactive).

Consider `O=C(O)CCCc1ccc2ccc3ccccc3c2c1`, for which the GI50 was 38.8 µM (inactive) in the assay on RPMI-8226; 14 µM (inactive) in the assay with SNB-75; 61 µM (inactive) in the assay with A549; 69 µM (inactive) in the assay on BT-549; > 100 µM (inactive) in the assay on MDA-N; 73.1 µM (inactive) in the assay with MDA-MB-231. For the same compound, the GI50 in the assay with NCI-H226 was 78.2 µM (inactive); in the assay on UACC-62, 38.3 µM (inactive); in the assay with LOX IMVI, 96.4 µM (inactive); in the assay on K562 it was 42.5 µM (inactive); in the assay on ACHN it was 46.2 µM (inactive); in the assay on IGROV-1 it was > 100 µM (inactive). Also, the GI50 with HCT-15 is 51.1 µM; with A498 it was 73.5 µM (inactive); in the assay on SNB-19, > 100 µM (inactive); with NCI-H522, 39.6 µM (inactive); with Malme-3M it was 39.4 µM (inactive).
